One experiment has as its system WSU-NHL cell line. Put plainly: WST 1 colorimetric cell proliferation assay, WSU-NHL cell line. In kind it is cell-based, human. As to conditions: for effect of valproic acid pretreatment on cell proliferation (percent growth of treated cells): 48 h pretreatment 1 mM valproic acid. The procedure:
(§1) In this example the combined effect of valproic acid and three different compounds as well as the single treatment on the growth of two cell lines were measured by WST 1 assay.
(§2) The cell lines used where: • SU DHL 8: human B cell lymphoma, and • WSU NHL: human B cell lymphoma
The WST 1 colorimetric assay comprised providing suspended cells (5000 cells/well) in the wells of a well plate. Tetrazolium salt (WST 1) was added to the cells and thereby colored the fluid in the wells red. Live cells reduce the tetrazolium salt via intermediate electron acceptors and forms a formazan product and the fluid in the cells turn yellow. The extent of color change reflects the proliferation of the cells and is read out as optical absorbance at 420 nm. Both cell lines were determined to be able to tolerate concentrations of up to 1% Dimethyl sulfoxide (DMSO), and this DMSO concentration was used as negative control. Additionally, 10% DMSO was used as positive control.
(§3) The cells of each cell line were incubated in a pretreatment step with 1 mM valproic acid for 48 hours followed by a treatment step with the respective compound for 24 or 48 hours, as shown in table 1 below: […]

Experiment [1] concerns SU-DHL cell line (SU DHL 8). Put plainly: WST 1 colorimetric cell proliferation assay, SU-DHL cell line. In kind it is cell-based, human. As to conditions: for effect of valproic acid pretreatment on cell proliferation (percent growth of treated cells): 48 h pretreatment 1 mM valproic acid. The procedure:
as §1, §2
The WST 1 colorimetric assay comprised providing suspended cells (5000 cells/well) in the wells of a well plate. Tetrazolium salt (WST 1) was added to the cells and thereby colored the fluid in the wells red. Live cells reduce the tetrazolium salt via intermediate electron acceptors and forms a formazan product and the fluid in the cells turn yellow. The extent of color change reflects the proliferation of the cells and is read out as optical absorbance at 420 nm. […] Additionally, 10% DMSO was used as positive control.
as §3

Setting [2] is: FIG. 2B, 5 μM of compound 48 h after 48 h 1 mM valproic acid, normalized to untreated control cells.

`Cn1c(CCCC(=O)O)nc2cc(N(CCCl)CCCl)ccc21` [bendamustine, 1H-Benzimidazole-2-butanoic acid, 5-[bis(2-chloroethyl)amino]-1-methyl-]: the “effect on cell proliferation after valproic acid pretreatment” value (“effect on cell proliferation” for short) in the experiment on WSU-NHL cell line (FIG. 1B, 5 μM bendamustine 24 h after 48 h 1 mM valproic acid, normalized to untreated control cells) is on record as “Especially significant effects”; in the experiment with WSU-NHL cell line (setting [2]), “Especially significant effects”. In addition, the “cell proliferation, combination with VPA” value in experiment [1] (FIG. 4A, 25 μM bendamustine 48 h after 48 h 1 mM VPA, normalized to 1/DMSO treated cells) is on record as “killed all cancer cells”.

`N.N.O=C([O-])C1(C(=O)[O-])CCC1.[Pt+2]` [carboplatin, Platinum, diammine[1,1-cyclobutanedicarboxylato(2-)-KO,KO″ ]-, (SP-4-2)-]: in the experiment with WSU-NHL cell line (setting [2]), the “effect on cell proliferation” value is “Especially significant effects”. In addition, the “cells left alive, combination with VPA” value in experiment [1] (FIG. 4B, 5 μM carboplatin 48 h after 48 h 1 mM VPA, normalized to untreated control cells) is recorded as “about 10 cells”; in experiment [1] (FIG. 4B, 25 μM carboplatin 48 h after 48 h 1 mM VPA, normalized to untreated control cells), “about 10 cells”.

As to `Nc1ccn([C@@H]2O[C@H](CO)[C@@H](O)C2(F)F)c(=O)n1` [gemcitabine, Cytidine, 2′-deoxy-2′,2′-difluoro-], the “effect on cell proliferation” value is on record as “Especially significant effects” in the experiment with WSU-NHL cell line (FIG. 1B, 5 nM gemcitabine 24 h after 48 h 1 mM valproic acid, normalized to untreated control cells) and “Especially significant effects” in the experiment on WSU-NHL cell line (FIG. 2B, 5 nM gemcitabine 48 h after 48 h 1 mM valproic acid, normalized to untreated control cells). Moreover, the “cell proliferation, combination with VPA” value in experiment [1] (FIG. 4A, 25 nM gemcitabine 48 h after 48 h 1 mM VPA, normalized to 1/DMSO treated cells) is “killed all cancer cells”.

Turning to `CCCC(CCC)C(=O)O` [valproic acid], the “effect of valproic acid pretreatment on cell proliferation (percent growth of treated cells)” value is recorded as “increased the effect of the 24 h treatment” in the experiment on WSU-NHL cell line (FIG. 1A, then 24 h treatment with bendamustine, gemcitabine or carboplatin, normalized to 1% DMSO treated cells); “increased the effect of the 24 h treatment” with WSU-NHL cell line (FIG. 1B, then 24 h treatment with the respective compounds, normalized to untreated control cells); “increased the effect of the 48 h treatment” with WSU-NHL cell line (FIG. 2A, then 48 h treatment with the respective compounds, normalized to 1/DMSO treated cells); “increased the effect of the 48 h treatment” with WSU-NHL cell line (FIG. 2B, then 48 h treatment with the respective compounds, normalized to untreated control cells); “increased the effect of the 24 h treatment” in experiment [1] (FIG. 3A, then 24 h treatment with the respective compounds, normalized to 1% DMSO treated cells); “increased the effect of the 24 h treatment” in experiment [1] (FIG. 3B, then 24 h treatment with the respective compounds, normalized to untreated control cells). Besides, the “effect of valproic acid pretreatment on cell proliferation (percent growth of treated cells)” value is given as “increased the effect of the 48 h treatment” in experiment [1] (FIG. 4A, then 48 h treatment with the respective compounds, normalized to 1/DMSO treated cells) and “increased the effect of the 48 h treatment” in experiment [1] (FIG. 4B, then 48 h treatment with the respective compounds, normalized to untreated control cells).

(Values after patent US20250302781A1, “METHOD FOR PRETREATING RELAPSING CANCER” (priority 2022, published 2025).)
